Source: paper PMC3433414, “Oral Administration of the Pimelic Diphenylamide HDAC Inhibitor HDACi 4b Is Unsuitable for Chronic Inhibition of HDAC Activity in the CNS In Vivo” (PLoS ONE, 2012)
pIC50: −log10 of the molar value.

How the values were obtained:
human recombinant HDAC2 = target: T1, human recombinant HDAC2 (Homo sapiens, UniProt Q92769); assay: Two-step fluorogenic deacetylase assay, recombinant HDAC2; type: biochemical
T1 construct: purified recombinant human full length HDAC1 (cat# 50051), HDAC2 (cat# 50052); purchased BPS Bioscience (San Diego, CA) 50052
T1 sequence (Q92769 whole entry): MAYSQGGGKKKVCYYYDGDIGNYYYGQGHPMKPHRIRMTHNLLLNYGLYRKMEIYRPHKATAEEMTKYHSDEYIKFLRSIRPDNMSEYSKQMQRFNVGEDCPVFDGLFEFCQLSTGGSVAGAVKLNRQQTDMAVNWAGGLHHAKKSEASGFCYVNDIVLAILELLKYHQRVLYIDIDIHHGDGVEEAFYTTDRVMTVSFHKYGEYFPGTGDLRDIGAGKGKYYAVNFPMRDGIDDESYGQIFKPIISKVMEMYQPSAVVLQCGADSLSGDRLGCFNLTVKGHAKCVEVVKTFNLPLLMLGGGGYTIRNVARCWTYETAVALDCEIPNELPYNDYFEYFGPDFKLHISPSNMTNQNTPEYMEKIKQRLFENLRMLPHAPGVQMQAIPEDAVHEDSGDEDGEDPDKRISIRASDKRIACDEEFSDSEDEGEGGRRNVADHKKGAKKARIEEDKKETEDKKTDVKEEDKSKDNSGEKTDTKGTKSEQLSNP
Source text: (§1) To assess the biochemical and cellular potency of 4b and its conversion products/metabolites, we utilized the two-step fluorogenic assay which measures the HDAC-mediated catalytic conversion of synthetic acetylated lysine substrates. In brief, on deacetylation of the substrates by HDAC activity, a protease site is unmasked which allows subsequent trypsin-mediated cleavage and release of the highly flourescent AMC molecules in a subsequent step of the assay. The substrates used were Lys_Ac_AMC (Bachem I-1875) for HDAC3 and (Ac)Arg-Gly-Lys(Ac) (Bachem I-1925) for HDAC1 and HDAC2. […] However, the relatively labile and sterically more demanding trifluoracetyl group is readily hydrolyzed by the catalytically less avid Class IIa enzymes, allowing measurement of Class IIa activity using the 2-step fluorogenic assay. […]
(§2) For evaluation of the class selectivity of the compounds, we assessed inhibition against purified recombinant human full length HDAC1 (cat# 50051), HDAC2 (cat# 50052), HDAC3-NcoR2 (cat# 50003) and HDAC8 (cat# 50008): as representative of Class I activity; catalytic domain HDAC4(αα 648–1057), HDAC5 (αα 657–1123; cat # 50005), HDAC7 (αα 518-end; cat # 50007) and HDAC9 (αα 604–1066; cat # 50009) activity: representing all Class IIa activity; and full length HDAC6 (cat#50006): representing Class IIb activity. […]

human recombinant HDAC8 = target: T2, human recombinant HDAC8 (Homo sapiens, UniProt Q9BY41); assay: Two-step fluorogenic deacetylase assay, recombinant HDAC8; type: biochemical; settings: up to 50 µM
T2 construct: purified recombinant human full length HDAC1 (cat# 50051), HDAC2 (cat# 50052), HDAC3-NcoR2 (cat# 50003) and HDAC8 (cat# 50008); purchased BPS Bioscience (San Diego, CA) 50008
T2 sequence (Q9BY41 whole entry): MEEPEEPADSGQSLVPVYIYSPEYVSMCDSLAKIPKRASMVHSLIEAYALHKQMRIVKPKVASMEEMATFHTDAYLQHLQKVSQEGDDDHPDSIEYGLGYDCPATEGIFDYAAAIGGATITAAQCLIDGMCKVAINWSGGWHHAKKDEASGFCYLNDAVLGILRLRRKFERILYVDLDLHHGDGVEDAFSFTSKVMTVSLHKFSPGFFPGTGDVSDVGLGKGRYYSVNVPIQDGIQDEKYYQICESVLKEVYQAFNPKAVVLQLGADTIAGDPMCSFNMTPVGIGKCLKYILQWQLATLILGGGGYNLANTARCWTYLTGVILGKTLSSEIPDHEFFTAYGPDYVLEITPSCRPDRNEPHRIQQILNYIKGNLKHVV
Source text: as §1, §2

catalytic domain HDAC4 = target: T3, catalytic domain HDAC4 (Homo sapiens, UniProt P56524); assay: Two-step fluorogenic deacetylase assay, recombinant HDAC4; type: biochemical; settings: up to 50 µM
T3 construct: catalytic domain HDAC4(αα 648–1057); purchased Emerald Biosciences (Seattle, WA)
T3 sequence (P56524 648-1057): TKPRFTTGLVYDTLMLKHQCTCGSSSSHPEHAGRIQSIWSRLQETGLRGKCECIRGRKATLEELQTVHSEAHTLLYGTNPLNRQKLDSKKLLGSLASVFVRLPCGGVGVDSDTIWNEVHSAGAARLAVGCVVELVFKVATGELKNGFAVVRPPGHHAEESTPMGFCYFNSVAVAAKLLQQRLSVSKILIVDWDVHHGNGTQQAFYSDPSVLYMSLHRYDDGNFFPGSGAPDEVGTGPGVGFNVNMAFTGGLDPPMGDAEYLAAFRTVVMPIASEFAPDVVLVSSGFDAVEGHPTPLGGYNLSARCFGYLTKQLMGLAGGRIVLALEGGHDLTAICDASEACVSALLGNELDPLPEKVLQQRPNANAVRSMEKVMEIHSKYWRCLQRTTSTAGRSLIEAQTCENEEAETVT
Source text: as §1, §2

B1 (h) = target: T4, B1 (h) (Homo sapiens, UniProt P46663); assay: Cerep binding, agonist radioligand; settings: read-out: % inhibition of control specific binding
T4 construct: purchased Cerep (Diversity Profile)
T4 sequence (P46663 whole entry): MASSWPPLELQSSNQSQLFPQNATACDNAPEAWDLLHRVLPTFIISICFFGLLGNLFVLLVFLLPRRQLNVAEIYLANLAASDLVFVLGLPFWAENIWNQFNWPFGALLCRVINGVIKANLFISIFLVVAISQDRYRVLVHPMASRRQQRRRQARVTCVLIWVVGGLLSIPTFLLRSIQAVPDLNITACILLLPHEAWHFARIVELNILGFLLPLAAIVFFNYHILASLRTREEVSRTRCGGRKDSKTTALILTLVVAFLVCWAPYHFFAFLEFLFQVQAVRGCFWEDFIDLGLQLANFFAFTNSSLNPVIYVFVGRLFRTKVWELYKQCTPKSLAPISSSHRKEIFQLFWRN
Source text: (§3) In addition to the HDAC profiling performed, we also queried 4b for any apparent potential off-target effects, which could complicate any finding of efficacy or adverse events in vivo due to ‘polypharmacy’. This was accomplished by screening against a ‘diversity panel’ of 72 binding and 29 enzyme assays, comprised of roughly equal numbers of selective central and peripheral therapeutically relevant targets (Cerep Diversity Profile). This panel included representative targets from diverse enzyme families, G protein coupled receptors, steroid nuclear receptors, voltage- and ligand-gated ion channels. While not totally inclusive, it is a useful tool for discovery compounds to assess their viability as proof of concept molecules to specifically query a particular target. 4b was initially screened at 10 µM in duplicate. The full set of results is provided as Table S1. […] This clean in vitro profile was considered acceptable to proceed to ADME and pharmacokinetic studies.

BZD (central) = assay: Cerep binding, agonist radioligand; settings: 10 μM
Source text: as §3

CRF1 (h) = target: T5, CRF1 (h) (Homo sapiens, UniProt P34998); assay: Cerep binding, agonist radioligand; settings: read-out: % inhibition of control specific binding
T5 construct: purchased Cerep (Diversity Profile)
T5 sequence (P34998 24-415): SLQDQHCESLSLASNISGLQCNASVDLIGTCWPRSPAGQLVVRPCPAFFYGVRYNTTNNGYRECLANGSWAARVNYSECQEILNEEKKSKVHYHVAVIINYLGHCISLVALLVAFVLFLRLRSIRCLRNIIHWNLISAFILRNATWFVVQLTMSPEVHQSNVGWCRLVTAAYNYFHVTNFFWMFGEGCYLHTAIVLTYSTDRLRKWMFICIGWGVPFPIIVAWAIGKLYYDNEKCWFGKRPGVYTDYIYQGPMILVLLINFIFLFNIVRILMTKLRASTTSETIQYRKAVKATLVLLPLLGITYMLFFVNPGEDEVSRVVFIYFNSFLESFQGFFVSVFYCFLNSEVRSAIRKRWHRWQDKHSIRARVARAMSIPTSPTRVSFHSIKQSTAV
Source text: as §3

ETA (h) = target: T6, ETA (h) (Homo sapiens, UniProt P25101); assay: Cerep binding, agonist radioligand; settings: read-out: % inhibition of control specific binding
T6 construct: purchased Cerep (Diversity Profile)
T6 sequence (P25101 21-427): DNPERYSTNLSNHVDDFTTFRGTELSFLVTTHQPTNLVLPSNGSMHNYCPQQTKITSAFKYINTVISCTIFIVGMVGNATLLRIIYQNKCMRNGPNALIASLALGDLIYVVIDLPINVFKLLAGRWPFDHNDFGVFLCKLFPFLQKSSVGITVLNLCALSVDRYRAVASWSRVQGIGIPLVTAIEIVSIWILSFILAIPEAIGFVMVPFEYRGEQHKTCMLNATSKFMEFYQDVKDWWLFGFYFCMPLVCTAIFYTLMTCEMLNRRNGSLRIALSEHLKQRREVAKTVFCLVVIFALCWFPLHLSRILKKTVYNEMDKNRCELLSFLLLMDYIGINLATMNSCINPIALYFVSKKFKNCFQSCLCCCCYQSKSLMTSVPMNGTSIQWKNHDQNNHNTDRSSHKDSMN
Source text: as §3

P2X = assay: Cerep binding, agonist radioligand; settings: 10 μM
Source text: as §3

| inhibition at 10 µM (ETA (h)) | % inhibition of control specific binding (P2X) | Compound | pIC50 (human recombinant HDAC2) | activity against HDAC8 (human recombinant HDAC8) | activity against HDAC4 (catalytic domain HDAC4) | inhibition at 10 µM (B1 (h)) | % inhibition of control specific binding (BZD (central)) | inhibition at 10 µM (CRF1 (h)) |
| --- | --- | --- | --- | --- | --- | --- | --- | --- |
|  |  | Nc1ccccc1NC(=O)CCCCCC(=O)Nc1ccccc1 [Compound 4b] | 5.65 | No activity | No activity | 5% | 4% | 0% |
| 2% | 5% | O=C(CCCCCc1nc2ccccc2[nH]1)Nc1ccccc1 [Compound C1, 6-(1-H-benzo[d]imidazol-2-yl)-N-phenylhexanamide] |  |  |  |  |  |  |
